Experimental data taken from patent publication US11903916B2, “Methods of using probenecid for treatment of coronavirus infections” (University of Georgia Research Foundation, Inc., priority 2020, dated 2024).
Where two headings read alike, the source gives them in different places.

Key:
[1] = test system: SARS-CoV-2; format: cell-based; conditions: for reduction in plaque formation compared to DMSO treated infected control: 24 h pre-treatment, Vero E6, MOI 0.01, 4 days
[2] = test system: SARS-CoV-2; format: cell-based; conditions: for reduction in plaque formation compared to DMSO treated infected control: post-treatment after 1 hour infection, Vero E6, MOI 0.01, 4 days, FIG. 3

**Q.** What does the source list for `CCCN(CCC)S(=O)(=O)c1ccc(C(=O)O)cc1` [Probenecid, 4-[(dipropylamino)sulfony1] benzoic acid]?
**A.** viral titer/plaque formation ([1]; 24 hour pretreatment at the concentrations tested): significantly reduces viral titer/plaque formation; reduction in plaque formation compared to DMSO treated infected control ([1]; probenecid 0.0001 μM, another experiment, FIG. 2): ~50%; reduction in plaque formation compared to DMSO treated infected control ([1]; probenecid 0.1 μM, FIG. 1): ~72%; viral titer/plaque formation ([2]; post-treatment at the concentrations tested): significantly reduces viral titer/plaque formation; reduction in plaque formation compared to DMSO treated infected control ([2]; probenecid 0.0001 μM): ~40%; reduction in plaque formation compared to DMSO treated infected control ([2]; probenecid 5 μM): ~90%
